Experiment [1] deals with T1, gastrin (Rattus norvegicus, UniProt P30553).
T1 construct: The stomach was lowered into a jacketed organ bath containing 40 ml of buffered solution; from tissue; host or cells: isolated perfused whole stomach of immature rats (ca. 21 days old)
T1 sequence (P30553 1-452): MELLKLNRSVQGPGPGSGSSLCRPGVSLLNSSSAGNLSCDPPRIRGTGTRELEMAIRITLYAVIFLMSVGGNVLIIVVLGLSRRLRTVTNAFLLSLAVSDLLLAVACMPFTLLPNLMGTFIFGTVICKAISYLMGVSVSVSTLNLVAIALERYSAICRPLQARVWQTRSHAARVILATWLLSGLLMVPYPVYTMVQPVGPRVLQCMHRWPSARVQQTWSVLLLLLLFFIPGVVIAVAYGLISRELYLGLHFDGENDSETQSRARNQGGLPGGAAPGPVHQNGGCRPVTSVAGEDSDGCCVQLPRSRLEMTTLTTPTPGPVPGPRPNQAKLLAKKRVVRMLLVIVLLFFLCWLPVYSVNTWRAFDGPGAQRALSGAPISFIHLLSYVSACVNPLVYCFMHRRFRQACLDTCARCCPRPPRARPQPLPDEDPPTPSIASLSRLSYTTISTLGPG
Kind of experiment: gastrin antagonist activity in an immature rat stomach assay (pentagastrin-stimulated acid secretion). As to conditions: cumulative pentagastrin dose-response curves after 60 min with drug; for Kb: read-out: Gastrin pKB (converted). Here is the method:
The compounds of the examples were also tested for gastrin antagonist activity in an immature rat stomach assay. The procedure was as follows:
The oesophagus of immature rats (33-50 g, ca. 21 days old) was ligated at the level of the cardiac sphincter and the duodenal sphincter was cannulated. The stomach was excised and flushed with ca. 1 ml of unbuffered physiological saline solution. The fundus was punctured and cannulated. A further 4-5 ml of unbuffered solution was flushed through the stomach to ensure the preparation was not leaking. The stomach was lowered into a jacketed organ bath containing 40 ml of buffered solution containing 3×10^-8 M 5-methylfurmethide, maintained at 37° and gassed vigorously with 95% O2 /5% CO2. The stomach was continuously perfused at a rate of 1 ml min^-1 with unbuffered solution gassed with 100% O2 with the perfusate passing over an internally referenced pH-electrode fixed 12 cm above the stomach.
After 120 min of stabilisation the drugs were added directly to the serosal solution in the organ bath and after a further 60 min cumulative pentagastrin dose-response curves were started. Changes in acid secretion were monitored and the curves analysed according to Black et.al., Br. J. Pharmacol., 1985, 86, 581.

In experiment [2] the target is T2, CCKB receptor (Mus musculus, UniProt P56481).
T2 construct: The cortex was dissected, weighed and homogenised in 40ml ice-cold buffer; tissue Charles River (supplier of the CD1 mice); host or cells: cerebral cortex membranes of male CD1 mice
T2 sequence (P56481 1-453): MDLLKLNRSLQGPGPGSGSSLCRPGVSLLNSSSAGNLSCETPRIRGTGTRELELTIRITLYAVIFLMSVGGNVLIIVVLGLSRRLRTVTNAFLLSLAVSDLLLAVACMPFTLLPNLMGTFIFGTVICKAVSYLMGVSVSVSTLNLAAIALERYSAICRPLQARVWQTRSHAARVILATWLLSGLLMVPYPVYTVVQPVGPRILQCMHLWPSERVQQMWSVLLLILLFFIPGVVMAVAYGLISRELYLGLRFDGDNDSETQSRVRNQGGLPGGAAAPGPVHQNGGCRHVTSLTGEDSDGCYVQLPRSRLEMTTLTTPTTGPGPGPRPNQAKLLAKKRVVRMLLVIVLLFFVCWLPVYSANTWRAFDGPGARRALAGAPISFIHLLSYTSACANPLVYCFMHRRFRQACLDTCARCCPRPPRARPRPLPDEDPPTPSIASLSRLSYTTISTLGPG
Kind of experiment: CCKB receptor radioligand binding assay in mouse cortical membranes ([125I]-CCK8S). As to conditions: [125I]-CCK8S 200 pM, 150 min at 21±3°; for Ki: read-out: CCKB pKi (converted). The method in brief: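 Cortical membranes from male CD1 mice in HEPES buffer (pH 7.2; NaCl, KCl, MgCl2, EDTA, bacitracin) were incubated with competing compound and [125I]-CCK8S (added as a 200 pM solution) for 150 min at 21±3°. Non-specific binding was defined with L-365,260. Bound tracer was separated by GF/B filtration and counted by gamma counting.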

The results in this text go back to US5795907A, “Gastin and CCK receptor ligands” (James Black Foundation Limited, priority 1994, dated 1998).

Turning to “3-(1S-(3,5-dicarboxyphenylaminocarbonyl)-2-phenylethylaminocarbonyl)-2-(1-adamantanemethylaminocarbonyl)-1-phenylnaphthalene and its regioisomer with groups at positions 2 and 3 reversed [Example 56]”, the “Gastrin pKB” value in experiment [1] is 7.1. Besides, the “CCKB pKi” value in experiment [2] came to 7.0. Turning to “5-(1S-(3,5-dicarboxyphenylaminocarbonyl)-5-aminopentylaminocarbonyl)-6-(1-adamantanemethylaminocarbonyl)-indole and regioisomer with substituents at positions 5 and 6 reversed [Example 65]”, in experiment [1], the “Gastrin pKB” value was 8.2. Moreover, the “CCKB pKi” value in experiment [2] is given as 7.3.

Regarding “5-(1S-(3,5-methoxyaminocarbonylphenylaminocarbonyl)-2-phenylethylaminocarbonyl)-6-(1-adamantanemethylaminocarbonyl)-indole and regioisomer with substituents at positions 5 and 6 reversed [Example 38]”, in experiment [1], the “Gastrin pKB” value came out at 7.1. In addition, the “CCKB pKi” value in experiment [2] was determined as 7.5. As for `CN(CC12CC3CC(CC(C3)C1)C2)C(=O)c1cc2ccccc2cc1C(=O)N1CCC[C@@H]1C(=O)O` [Example 9, 2-(2R-carboxypyrrolidino-carbonyl)-3-(1-adamantanemethyl(N-methyl)aminocarbonyl)-naphthalene], in experiment [1], the Kb is 501 nM. Besides, the Ki in experiment [2] is 251 nM. As for `C[C@@H](NC(=O)[C@H]1CCCN1C(=O)c1cc2ccccc2cc1C(=O)NCC12CC3CC(CC(C3)C1)C2)C(=O)O` [Example 10, 2-(2R-(1R-carboxyethylaminocarbonyl)pyrrolidinocarbonyl)-3-(1-adamantanemethylaminocarbonyl)-naphthalene], the Kb in experiment [1] was 316 nM. In addition, in experiment [2], the Ki is 1580 nM.

Consider `O=C(O)CNC(=O)[C@H]1CCCN1C(=O)c1cc2ccccc2cc1C(=O)NCC12CC3CC(CC(C3)C1)C2` [Example 11, 2-(2R-carboxymethylaminocarbonylpyrrolidinocarbonyl)-3-(1-adamantanemethylaminocarbonyl)-naphthalene], for which the Kb in experiment [1] was 251 nM. In addition, in experiment [2], the Ki is 1260 nM. Take `C[C@@H](NC(=O)[C@H]1CCCN1C(=O)c1cc2ccccc2cc1C(=O)N(C)CC12CC3CC(CC(C3)C1)C2)C(=O)O` [Example 12, 2-(2R-(1R-carboxyethylaminocarbonyl)pyrrolidinocarbonyl)-3-(1-adamantanemethyl(N-methyl)aminocarbonyl)-naphthalene]: the Kb in experiment [1] was 1260 nM. Moreover, the Ki in experiment [2] is 1260 nM.

On to `C[C@H](NC(=O)[C@H]1CCCN1C(=O)c1cc2ccccc2cc1C(=O)N(C)CC12CC3CC(CC(C3)C1)C2)C(=O)O` [Example 13, 2-(2R-(1S-carboxyethylaminocarbonyl)pyrrolidinocarbonyl)-3-(1-adamantanemethyl(N-methyl)aminocarbonyl)-naphthalene], for which, in experiment [1], the Kb is 398 nM. The Ki in experiment [2] was 2000 nM. For `CN(CC12CC3CC(CC(C3)C1)C2)C(=O)c1cc2ccccc2cc1C(=O)N1CCC[C@@H]1C(=O)NCC(=O)O` [Example 14, 2-(2R-carboxymethylaminocarbonylpyrrolidino-carbonyl)-3-(1-adamantanemethyl(N-methyl)aminocarbonyl)-naphthalene], the Kb in experiment [1] is 316 nM. Also, in experiment [2], the Ki is 1000 nM. In the case of `O=C(O)c1cc(NC(=O)[C@@H](Cc2ccccc2)NC(=O)c2cc3ccccc3cc2C(=O)NCC23CC4CC(CC(C4)C2)C3)cc(C(=O)O)c1` [Example 23, 2-(1R-(3,5-dicarboxyphenylaminocarbonyl) -2-phenylethylaminocarbonyl)-3-(1-adamantanemethylaminocarbonyl)-naphthalene], in experiment [1], the Kb was 39.8 nM. Take `O=C(O)c1cc(NC(=O)[C@H](Cc2ccc(I)cc2)NC(=O)c2cc3cc[nH]c3cc2C(=O)NCC23CC4CC(CC(C4)C2)C3)cc(C(=O)O)c1` [Example 32, 5-(1S-(3,5-dicarboxyphenylaminocarbonyl)-2-(4-iodophenyl)ethylaminocarbonyl)-6-(1-adamantanemethylaminocarbonyl)-indole]: the Kb in experiment [1] was 0.794 nM. Further, the Ki in experiment [2] is 3.98 nM.

Turning to `COC(=O)c1cc(NC(=O)[C@H](Cc2ccccc2)NC(=O)c2cc3cc[nH]c3cc2C(=O)NCC23CC4CC(CC(C4)C2)C3)cc(C(=O)OC)c1` [Example 35, 5-(1S-(3,5-dimethoxycarbonylphenylaminocarbonyl)-2-phenylethylaminocarbonyl)-6-(1-adamantanemethylaminocarbonyl)-indole], the Kb in experiment [1] was 2 nM. Further, the Ki in experiment [2] is 63.1 nM. In the same order, the values of `O=C(O)c1cc(NC(=O)[C@H](Cc2ccccc2)NC(=O)c2cc3c(cc2C(=O)NCC24CC5CC(CC(C5)C2)C4)[nH]c2ccccc23)cc(C(=O)O)c1` [Example 51, 3-(1S-(3,5-dicarboxyphenylaminocarbonyl)-2-phenylethylaminocarbonyl)-2-(1-adamantanemethylaminocarbonyl)-carbazole] are 25.1 nM and 10 nM.

Regarding `O=C(O)c1cc(NC(=O)[C@H](Cc2ccccc2F)NC(=O)c2cc3[nH]cnc3cc2C(=O)NCC23CC4CC(CC(C4)C2)C3)cc(C(=O)O)c1` [Example 63, 5-(1S-(3,5-dicarboxyphenylaminocarbonyl)-2-(2-fluorophenyl)ethylaminocarbonyl)-6-(1-adamantanemethylaminocarbonyl)-benzimidazole], the “Gastrin pKB” value in experiment [1] is given as 9.1. Besides, in experiment [2], the “CCKB pKi” value was determined as 8.4. On to `CC(=O)NS(=O)(=O)c1cccc(NC(=O)[C@H](Cc2ccccc2)NC(=O)c2cc3[nH]cnc3cc2C(=O)NCC23CC4CC(CC(C4)C2)C3)c1` [Example 137, 5-(1S-(3-acetylaminosulphonylphenylaminocarbonyl)-2-phenylethylaminocarbonyl)-6-(1-adamantanemethylaminocarbonyl)-benzimidazole], for which, in experiment [1], the Kb is 15.8 nM. Besides, the Ki in experiment [2] is 20 nM. In the same order, the values of `O=C(NS(=O)(=O)c1cccc(NC(=O)[C@H](Cc2ccccc2)NC(=O)c2cc3[nH]cnc3cc2C(=O)NCC23CC4CC(CC(C4)C2)C3)c1)c1ccccc1` [Example 139, 5-(1S-(3-benzoylaminosulphonylphenylaminocarbonyl)-2-phenylethylaminocarbonyl)-6-(1-adamantanemethylaminocarbonyl)-benzimidazole] are 79.4 nM and 15.8 nM.
